PubChem BioAssay (NCI)
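1) Cells in 96-well plates. 2) Compound, 48 h, 5 concentrations. 3) Linear interpolation between surrounding doses. 4) Unreached endpoint = highest concentration. GI50 = concentration required for 50% inhibition of growth. Definition used: TGI = concentration required for complete inhibition of growth.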

How the values were obtained:
Assay in all cases: inhibition of tumour cell growth, NCI panel, 48 h
NCI-H522 lung = test system: NCI-H522 lung
NCI/ADR-RES ovarian = test system: NCI/ADR-RES ovarian
OVCAR-3 ovarian = test system: OVCAR-3 ovarian
OVCAR-4 ovarian = test system: OVCAR-4 ovarian
OVCAR-5 ovarian = test system: OVCAR-5 ovarian
OVCAR-8 ovarian = test system: OVCAR-8 ovarian
PC-3 prostate = test system: PC-3 prostate
RPMI-8226 leukemia = test system: RPMI-8226 leukemia
RXF 393 renal = test system: RXF 393 renal
SF-268 CNS = test system: SF-268 CNS
SF-295 CNS = test system: SF-295 CNS
SF-539 CNS = test system: SF-539 CNS
SK-MEL-2 melanoma = test system: SK-MEL-2 melanoma
SK-MEL-28 melanoma = test system: SK-MEL-28 melanoma
SK-MEL-5 melanoma = test system: SK-MEL-5 melanoma
SK-OV-3 ovarian = test system: SK-OV-3 ovarian
SN12C renal = test system: SN12C renal
SNB-19 CNS = test system: SNB-19 CNS
SNB-75 CNS = test system: SNB-75 CNS
SR leukemia = test system: SR leukemia
SW-620 colon = test system: SW-620 colon
T-47D breast = test system: T-47D breast
TK-10 renal = test system: TK-10 renal
U251 CNS = test system: U251 CNS
UACC-257 melanoma = test system: UACC-257 melanoma
UACC-62 melanoma = test system: UACC-62 melanoma
UO-31 renal = test system: UO-31 renal

`CNCc1ccccc1-c1csc([C@@H](C)Nc2nc(C)nc3cc(OC)c(OC)cc23)c1` gave a GI50 (NCI-H522 lung) of 1.54 µM, a TGI (NCI-H522 lung) of 3.64 µM and a GI50 (NCI/ADR-RES ovarian) of 2.01 µM. The TGI (NCI/ADR-RES ovarian) was 4.68 µM, the GI50 (OVCAR-3 ovarian) was 2.42 µM and the TGI (OVCAR-3 ovarian) was 8.04 µM. For the same compound, the GI50 (OVCAR-4 ovarian) was 2.4 µM, the TGI (OVCAR-4 ovarian) was 10.7 µM and the GI50 (OVCAR-5 ovarian) was 3.29 µM. The TGI (OVCAR-5 ovarian) was 13.6 µM, the GI50 (OVCAR-8 ovarian) was 2.29 µM and the TGI (OVCAR-8 ovarian) was 7.65 µM. The GI50 (PC-3 prostate) was 4.01 µM, the TGI (PC-3 prostate) was 12.3 µM and the GI50 (RPMI-8226 leukemia) was 1.77 µM. The TGI (RPMI-8226 leukemia) was 4.3 µM, the GI50 (RXF 393 renal) was 1.31 µM and the TGI (RXF 393 renal) was 2.84 µM. It also gave a GI50 (SF-268 CNS) of 2.66 µM, a TGI (SF-268 CNS) of 12.4 µM and a GI50 (SF-295 CNS) of 1.45 µM. It also gave a TGI (SF-295 CNS) of 2.88 µM, a GI50 (SF-539 CNS) of 1.5 µM and a TGI (SF-539 CNS) of 2.94 µM. The GI50 (SK-MEL-2 melanoma) was 1.87 µM, the TGI (SK-MEL-2 melanoma) was 3.69 µM and the GI50 (SK-MEL-28 melanoma) was 1.95 µM. For the same compound, the TGI (SK-MEL-28 melanoma) was 3.53 µM, the GI50 (SK-MEL-5 melanoma) was 1.72 µM and the TGI (SK-MEL-5 melanoma) was 3.09 µM. For the same compound, the GI50 (SK-OV-3 ovarian) was 4.67 µM, the TGI (SK-OV-3 ovarian) was 18.8 µM and the GI50 (SN12C renal) was 1.48 µM. For the same compound, the TGI (SN12C renal) was 5.02 µM, the GI50 (SNB-19 CNS) was 1.84 µM and the TGI (SNB-19 CNS) was 6.69 µM. The GI50 (SNB-75 CNS) was 1.33 µM, the TGI (SNB-75 CNS) was 2.65 µM and the GI50 (SR leukemia) was 0.624 µM. It also gave a TGI (SR leukemia) of 2.38 µM, a GI50 (SW-620 colon) of 1.49 µM and a TGI (SW-620 colon) of 3.44 µM. For the same compound, the GI50 (T-47D breast) was 1.85 µM, the TGI (T-47D breast) was 4.1 µM and the GI50 (TK-10 renal) was 1.09 µM. It also gave a TGI (TK-10 renal) of 2.52 µM, a GI50 (U251 CNS) of 1.48 µM and a TGI (U251 CNS) of 3 µM. The GI50 (UACC-257 melanoma) was 1.82 µM, the TGI (UACC-257 melanoma) was 3.51 µM and the GI50 (UACC-62 melanoma) was 1.84 µM. For the same compound, the TGI (UACC-62 melanoma) was 3.43 µM, the GI50 (UO-31 renal) was 1.23 µM and the TGI (UO-31 renal) was 2.48 µM.
